These results are taken from ChEMBL document CHEMBL4219248, “Design, in silico prioritization and biological profiling of apoptosis-inducing lactams amenable by the Castagnoli-Cushman reaction” (Bioorg Med Chem, 2018).

The subject of data set [1] is HCT-116. The data set can be described thus: Induction of apoptosis in human HCT116 p53+ cells at 5 uM by Annexin V-FITC staining-based flow cytometric analysis relative to Nutlin-3a. Type of data set: functional.
The subject of data set [2] is U2OS. The data set can be described thus: Cytotoxicity against human U2OS cells harboring p53-dependent EGFP reporter gene assessed as reduction in cell viability at 5 uM after 48 hrs. Format: cell-based. (In a reporter assay the amount or activity of a reporter protein is the signal.)
Data set [3] has as its system HCT-116. Briefly: Antiproliferative activity against human HCT116 p53+/+ cells assessed as growth inhibition after 24 hrs by EdU/Hoechst 33342 staining-based fluorescence analysis. Type of data set: functional. The note with it: HCT-116, 24 h.
For data set [4], the system named is HCT-116. Briefly: Antiproliferative activity against human HCT116 p53-/- cells assessed as growth inhibition after 24 hrs by EdU/Hoechst 33342 staining-based fluorescence analysis. Type of data set: functional. To be noted: HCT-116, 24 h.
The subject of data set [5] is U2OS. Briefly: Cytotoxicity against human U2OS cells harboring p53-dependent EGFP reporter gene assessed as reduction in cell viability at 30 uM after 48 hrs. Format: cell-based.

Take `COc1ccc(CNC(=O)[C@H]2OCC(=O)N(c3ccc(Cc4ccncc4)cc3)[C@@H]2c2ccc(Cl)cc2)cc1` (mixture of isomers): the values for the Activity in the data set with HCT-116 [1] and with U2OS [2] were 6.4% and “Toxic”, respectively.

For `Cc1cccc([C@@H]2[C@@H](C(=O)NCc3ccccc3)OCC(=O)N2c2ccc(F)c(Cl)c2)c1` (racemic), the Activity with HCT-116 [1] was 3.7%; with U2OS [2], “Toxic”.

In the case of `Cc1cccc([C@@H]2[C@@H](C(=O)NCc3cccnc3)OCC(=O)N2c2ccc(F)c(Cl)c2)c1` (racemic), the values for the Activity in the data set with HCT-116 [1] and in the data set on U2OS [2] were 12.4% and “Toxic”, respectively.

The GI50 is the concentration that inhibits growth by half. As for `O=C(NCc1ccc(Cl)cc1)[C@H]1OCC(=O)N(c2cccc(Cl)c2)[C@@H]1c1cccc(C(F)(F)F)c1` (relative stereo), the GI50 in the data set on HCT-116 [3] amounted to 12 µM; in the data set with HCT-116 [4] it was 40 µM. In addition, the Activity in the data set on HCT-116 [1] is 84.6%; with U2OS [2], “Toxic”.

For `O=C(NCc1ccc2c(c1)OCO2)[C@H]1OCC(=O)N(c2cccc(Cl)c2)[C@@H]1c1ccc(Cl)cc1` (racemic), the concentration for 50% growth inhibition (GI50) in the data set on HCT-116 [3] stood at 20 µM; in the data set with HCT-116 [4], 72 µM. Moreover, the Activity is 66.5% in the data set on HCT-116 [1] and “Toxic” in the data set with U2OS [2].

`CC(C)[C@@H](CS(=O)(=O)C(C)C)N1C(=O)[C@@](C)(CC(=O)O)C[C@H](c2cccc(Cl)c2)[C@H]1c1ccc(Cl)cc1` [NAVTEMADLIN]: the GI50 with HCT-116 [3] turned out to be 7 µM; in the data set on HCT-116 [4], 33 µM. Also, the Activity in the data set with HCT-116 [1] turned out to be 112%.

Take `O=C(NCc1ccc2c(c1)OCO2)[C@H]1CC(=O)N(c2ccc(F)c(Cl)c2)[C@@H]1c1ccc(Cl)cc1` (racemic): the concentration for 50% growth inhibition (GI50) was 8 µM with HCT-116 [3] and 29 µM with HCT-116 [4]. Also, the Activity in the data set with HCT-116 [1] is recorded as 90.7%; in the data set on U2OS [2] it was “Toxic”.

As for `CC(C)Oc1ccc([C@@H]2[C@@H](C(=O)NCc3ccc(-n4ccnc4)cc3)CCC(=O)N2c2ccc(OC3CCCC3)cc2)cc1` (relative stereo), the Activity was 35.2% in the data set with HCT-116 [1] and “Toxic” in the data set with U2OS [2].

Turning to `CN(C)c1ccc([C@@H]2[C@@H](C(=O)NCc3ccccc3CN3CCCC3=O)OCC(=O)N2c2ccc(Cc3ccncc3)cc2)cc1` (racemic), the results for the Activity with HCT-116 [1] and in the data set on U2OS [2] were 0% and “Toxic”, respectively.

With `CCOc1cccc(CNC(=O)[C@H]2OCC(=O)N(c3ccc(F)c(Cl)c3)[C@@H]2c2cccc(F)c2)c1` (racemic), the Activity in the data set on HCT-116 [1] is reported as 1.6%; in the data set on U2OS [2] it was “Toxic”.

Consider `COc1ccc(CN(CCCN2CCOCC2)C(=O)[C@H]2OCC(=O)N(c3ccc(Cc4ccncc4)cc3)[C@@H]2c2ccc(Cl)cc2)cc1` (racemic), for which the figures for the Activity with HCT-116 [1] and in the data set with U2OS [2] were 1.6% and “Toxic”, respectively.

Consider `CC(C)(C)C[C@@H]1N[C@@H](C(=O)N[C@H]2CC[C@H](O)CC2)[C@H](c2cccc(Cl)c2F)[C@]12C(=O)Nc1cc(Cl)ccc12` [SAR-405838], for which the 50% growth inhibitory concentration (GI50) in the data set on HCT-116 [3] was 6 µM; in the data set with HCT-116 [4], 38 µM. For the same molecule, the Activity in the data set on HCT-116 [1] is listed as 115%.

As for `Cc1cccc(CNC(=O)[C@@H]2[C@@H](c3ccc(Cl)cc3)N(c3ccc(Cl)cc3)C(=O)CN2C(=O)c2ccncc2)c1` (racemic), the 50% growth inhibitory concentration (GI50) in the data set on HCT-116 [3] was determined as 30 µM; in the data set with HCT-116 [4] it was 80 µM. Also, the Activity with HCT-116 [1] is 63.4%; in the data set with U2OS [2], “Toxic”.

On to `Cc1cccc([C@@H]2[C@@H](C(=O)NCc3ccc(Cl)cc3)OCC(=O)N2c2ccc(F)c(F)c2)c1` (racemic), for which the Activity in the data set on HCT-116 [1] is given as 7.1%; in the data set on U2OS [2], “Toxic”.

Turning to `COc1ccc(CNC(=O)[C@H]2OCC(=O)N(c3cccc(Cl)c3)[C@@H]2c2cccc(F)c2)cc1` (racemic), the Activity in the data set on HCT-116 [1] is 0%; in the data set with U2OS [2] it was “Toxic”.

Regarding `Cc1cccc([C@@H]2[C@@H](C(=O)NCCc3ccc(Cl)cc3)OCC(=O)N2c2ccc(F)c(Cl)c2)c1` (racemic), the Activity in the data set with HCT-116 [1] is on record as 14.3%; in the data set with U2OS [2], “Toxic”.

For `COc1ccc(C2=N[C@@H](c3ccc(Cl)cc3)[C@@H](c3ccc(Cl)cc3)N2C(=O)N2CCNC(=O)C2)c(OC(C)C)c1` [NUTLIN-3], the GI50 came out at 9 µM with HCT-116 [3] and 29 µM in the data set on HCT-116 [4]. Moreover, the Activity result with U2OS [5] is “Toxic”.

As to `Cc1ccc(CNC(=O)[C@H]2OCC(=O)N(c3ccc(F)c(Cl)c3)[C@@H]2c2cccc(C)c2)cc1` (racemic), the Activity is 9.5% in the data set with HCT-116 [1] and “Toxic” in the data set with U2OS [2].

Turning to `COc1cc(CNC(=O)[C@H]2CCC(=O)N(c3ccccc3)[C@@H]2c2ccc(Cl)cc2)ccc1OC(C)C` (racemic), the GI50 with HCT-116 [3] stood at 26 µM; in the data set with HCT-116 [4] it was 81 µM. Further, the Activity in the data set with HCT-116 [1] is reported as 69.1%; with U2OS [2], “Toxic”.

For the molecule `Cc1cccc([C@@H]2[C@@H](C(=O)NCc3ccc(Cl)cc3)OCC(=O)N2c2ccc(F)c(Cl)c2)c1` (racemic), the Activity is given as 16.8% in the data set on HCT-116 [1] and “Toxic” in the data set with U2OS [2].

Regarding `Cc1cccc([C@@H]2[C@@H](C(=O)NCc3ccc(F)cc3)OCC(=O)N2c2ccc(F)c(Cl)c2)c1` (racemic), the Activity in the data set on HCT-116 [1] is recorded as 17%; with U2OS [2], “Toxic”.

Turning to `COCCCN(Cc1ccc(N2CCCC2)cc1)C(=O)[C@H]1CC(=O)N(c2cccc(Cl)c2)[C@@H]1c1ccc(Cl)cc1` (relative stereo), the Activity is given as 24.1% in the data set with HCT-116 [1] and “Toxic” in the data set on U2OS [2].

As for `Cc1cccc([C@@H]2[C@@H](C(=O)NCc3cccnc3)OCC(=O)N2c2ccc(F)c(F)c2)c1` (mixture of isomers), the values for the Activity with HCT-116 [1] and in the data set on U2OS [2] were 6.7% and “Toxic”, respectively.

Turning to `CCOc1ccc(CNC(=O)[C@H]2CC(=O)N(c3cccc(Cl)c3)[C@@H]2c2ccc(Cl)cc2)cc1` (racemic), the Activity is listed as 27.2% in the data set on HCT-116 [1] and “Toxic” in the data set on U2OS [2].

Take `O=C(NCc1ccc2c(c1)OCO2)[C@H]1CC(=O)N(c2cccc(Cl)c2)[C@@H]1c1cccc(F)c1` (racemic): the GI50 in the data set on HCT-116 [3] is 19 µM; in the data set on HCT-116 [4] it was 65 µM. Further, the results for the Activity with HCT-116 [1] and in the data set on U2OS [2] were 79.5% and “Toxic”, respectively.

Turning to `CCOc1cccc(CNC(=O)[C@H]2OCC(=O)N(c3ccc(F)c(F)c3)[C@@H]2c2cccc(C)c2)c1` (mixture of isomers), the Activity was 10.3% in the data set on HCT-116 [1] and “Toxic” in the data set with U2OS [2].

Take `COc1ccc(CNC(=O)[C@H]2CC(=O)N(c3ccc(F)c(Cl)c3)[C@@H]2c2ccc(Cl)cc2)c(OC)c1` (racemic): the figures for the GI50 in the data set with HCT-116 [3] and with HCT-116 [4] were 22 µM and 71 µM, respectively. In addition, the Activity is 75% in the data set on HCT-116 [1] and “Toxic” in the data set with U2OS [2].

Regarding `Cc1cccc([C@@H]2[C@@H](C(=O)NCc3ccccc3F)OCC(=O)N2c2ccc(F)c(Cl)c2)c1` (racemic), the Activity in the data set on HCT-116 [1] is listed as 18.9%; in the data set with U2OS [2] it was “Toxic”.

Regarding `Cc1ccc(CNC(=O)[C@H]2OCC(=O)N(c3ccc(F)c(Cl)c3)[C@@H]2c2cccc(F)c2)cc1` (racemic), the Activity with HCT-116 [1] is on record as 20.1%; with U2OS [2], “Toxic”.

With `O=C(NCc1ccc2c(c1)OCO2)[C@H]1CC(=O)N(c2ccc(F)c(F)c2)[C@@H]1c1ccc(Cl)cc1` (mixture of isomers), the Activity is 16% with HCT-116 [1] and “Toxic” in the data set with U2OS [2].

With `COCCCN(Cc1ccc(N(C)C)cc1)C(=O)[C@H]1OCC(=O)N(c2ccc(Cc3ccncc3)cc2)[C@@H]1c1ccc(Cl)cc1` (racemic), the Activity was 11.1% in the data set with HCT-116 [1] and “Toxic” in the data set on U2OS [2].

On to `CC(C)Oc1ccc([C@@H]2[C@@H](C(=O)NCc3ccccc3CN3CCOCC3)CCC(=O)N2c2ccc(Cc3ccncc3)cc2)cc1` (mixture of isomers), for which the values for the Activity in the data set on HCT-116 [1] and with U2OS [2] were 1.6% and “Toxic”, respectively.

As for `O=C(NCc1ccc(-n2ccnc2)cc1)[C@H]1OCC(=O)N(c2cccc(Cl)c2)[C@@H]1c1cccc(C(F)(F)F)c1` (racemic), the Activity is 39.3% with HCT-116 [1] and “Toxic” in the data set with U2OS [2].

Turning to `COc1ccc(CNC(=O)[C@H]2OCC(=O)N(c3ccc(F)c(Cl)c3)[C@@H]2c2ccc(Cl)cc2)cc1` (racemic), the 50% growth inhibitory concentration (GI50) worked out at 18 µM with HCT-116 [3] and 62 µM with HCT-116 [4]. In addition, the values for the Activity with HCT-116 [1] and in the data set with U2OS [2] were 85.3% and “Toxic”, respectively.

Take `C=CCOc1ccc([C@@H]2[C@@H](C(=O)NCCc3ccc(OC)c(OC)c3)N(C(=O)c3cccc(F)c3)CC(=O)N2C)cc1OCC` (racemic): the Activity is 0% with HCT-116 [1] and “Toxic” in the data set with U2OS [2].

Consider `O=C(NCc1ccccc1CN1CCCC1=O)[C@H]1CC(=O)N(c2ccc(F)c(Cl)c2)[C@@H]1c1ccc(Cl)cc1` (racemic), for which the 50% growth inhibitory concentration (GI50) amounted to 7 µM in the data set with HCT-116 [3] and 32 µM with HCT-116 [4]. The Activity with HCT-116 [1] was 123.9%; in the data set on U2OS [2], “Toxic”.

Turning to `COc1ccc(N2C(=O)CN(C(=O)c3ccncc3)[C@H](C(=O)NCc3cccc(C)c3)[C@H]2c2ccc(Cl)cc2)cc1` (racemic), the Activity in the data set on HCT-116 [1] is listed as 11.1%; in the data set on U2OS [2], “Toxic”.

Regarding `CCOc1cccc(CNC(=O)[C@H]2OCC(=O)N(c3ccccc3)[C@@H]2c2cccc(F)c2)c1` (racemic), the values for the Activity in the data set with HCT-116 [1] and in the data set with U2OS [2] were 3.2% and “Toxic”, respectively.

Take `O=C(NCc1ccc2c(c1)OCCO2)[C@H]1CC(=O)N(c2ccc(F)c(F)c2)[C@@H]1c1ccc(Cl)cc1` (racemic): the Activity is on record as 16% in the data set with HCT-116 [1] and “Toxic” with U2OS [2].

Take `CCOc1ccc(CNC(=O)[C@H]2OCC(=O)N(c3ccc(F)c(F)c3)[C@@H]2c2cccc(C)c2)cc1` (mixture of isomers): the figures for the Activity with HCT-116 [1] and in the data set with U2OS [2] were 8.5% and “Toxic”, respectively.

`COCCN(Cc1ccc(N(C)C)cc1)C(=O)[C@H]1CC(=O)N(c2ccc(F)c(F)c2)[C@@H]1c1ccc(Cl)cc1` (racemic): the Activity is 19.2% in the data set with HCT-116 [1] and “Toxic” in the data set on U2OS [2].
